How the values were obtained:
E. Coli = experiment: antimicrobial activity, agar dilution method; type: cell-based; conditions: after 10, 20, 40 and 60 min at all dilutions 1:100, 1:200, 1:400, 1:800
Description: (§1) The antibacterial properties of the synthesized compounds were studied by the method of agar dilution. Test solutions of each compound was prepared in a concentration of 1% using dimethylformamide as a solvent. Then the test solutions were diluted in a physiological solution to obtain the final experimental dilutions of 1:100, 1:200, 1:400, and 1:800. The effect of these substances was compared with furacillin in a controllable study. The testing microbes used were gram positive bacteria St. Aereus, gram negative bacteria E. Coli, and Ps. aeruginosa and Candida albicans fungi. The experiments used for this survey were a meat-pentonlu agar (EPA) for cultivation of bacteria and a Saburo environment for fungi. Each experiment used 1 mL of test solution on each plate for 500 min. Next, 2 drops of emulsified test solution with microbes feel were added. All experimental samples were taken from the agar after 10, 20, 40, 60 minutes in the environment on the basis of Patrk planted. Bacteria were cultivated at a temperature of 37° ° C. for 1 day and the mushroom was kept in a thermostat for […] at a temperature of 28° C. Then results were checked. Results for the control and the antimicrobial activity for the synthesized compounds are listed in Table 1 below. […]

St. Aereus = experiment: antimicrobial activity, agar dilution method; type: cell-based; conditions: after 10, 20, 40 and 60 min at all dilutions 1:100, 1:200, 1:400, 1:800
Description: as §1

Candida albicans = experiment: antimicrobial activity, agar dilution method; type: cell-based; conditions: after 10, 20, 40 and 60 min at all dilutions 1:100, 1:200, 1:400, 1:800
Description: as §1

Ps. aeruginosa = experiment: antimicrobial activity, agar dilution method; type: cell-based; conditions: after 10, 20, 40 and 60 min at all dilutions 1:100, 1:200, 1:400, 1:800
Description: as §1

| melting point [°C] | SMILES | inhibition activity (E. Coli) | inhibition activity (St. Aereus) | inhibition activity (Candida albicans) | inhibition activity (Ps. aeruginosa) |
| --- | --- | --- | --- | --- | --- |
| 151 to 153 | CCCCn1c(-c2csc3ccccc23)nc(-c2ccccc2)c1-c1ccccc1 [2-(Benzo[b]thiophen-3-yl)-1-butyl-4,5-diphenyl-1H-imidazole] | most inhibition activity | most inhibition activity | most inhibition activity | most inhibition activity |
| – | CN(C)CCCn1c(-c2cccnc2)nc(-c2ccccc2)c1-c1ccccc1 [3-(4,5-Diphenyl-2-(pyridin-3-yl)-1H-imidazol-1-yl)-N,N-dimethylpropan-1-amine] | highest inhibition activity | highest inhibition activity | highest inhibition activity | highest inhibition activity |
